According to PubChem BioAssay (NCI):
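Five compound concentrations were applied to cells in 96-well plates for 48 hours; endpoints were derived by simple linear interpolation of the resulting dose-response curve. Abbreviation: GI50, concentration required for 50% inhibition of growth. TGI is the concentration that stops growth completely.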

What was measured:
Assay in all cases: NCI-60 cell line screen, 48 h
786-0 renal = tested on: 786-0 renal
A498 renal = tested on: A498 renal
A549 NSCLC = tested on: A549 NSCLC
ACHN renal = tested on: ACHN renal
BT-549 breast = tested on: BT-549 breast
CAKI-1 renal = tested on: CAKI-1 renal
CCRF-CEM leukemia = tested on: CCRF-CEM leukemia
COLO 205 colon = tested on: COLO 205 colon
DU-145 prostate = tested on: DU-145 prostate
EKVX NSCLC = tested on: EKVX NSCLC
HCC-2998 colon = tested on: HCC-2998 colon
HCT-116 colon = tested on: HCT-116 colon
HCT-15 colon = tested on: HCT-15 colon
HL-60(TB) leukemia = tested on: HL-60(TB) leukemia
HOP-62 NSCLC = tested on: HOP-62 NSCLC
HOP-92 NSCLC = tested on: HOP-92 NSCLC
HS 578T breast = tested on: HS 578T breast
HT29 colon = tested on: HT29 colon
IGROV1 ovarian = tested on: IGROV1 ovarian
K-562 leukemia = tested on: K-562 leukemia
KM12 colon = tested on: KM12 colon
LOX IMVI melanoma = tested on: LOX IMVI melanoma
M14 melanoma = tested on: M14 melanoma
MALME-3M melanoma = tested on: MALME-3M melanoma
MCF7 breast = tested on: MCF7 breast
MDA-MB-231 breast = tested on: MDA-MB-231 breast
MDA-MB-435 = tested on: MDA-MB-435
MOLT-4 leukemia = tested on: MOLT-4 leukemia
NCI-H226 lung = tested on: NCI-H226 lung
NCI-H23 lung = tested on: NCI-H23 lung
NCI-H460 lung = tested on: NCI-H460 lung
NCI-H522 lung = tested on: NCI-H522 lung
NCI/ADR-RES ovarian = tested on: NCI/ADR-RES ovarian
OVCAR-3 ovarian = tested on: OVCAR-3 ovarian
OVCAR-4 ovarian = tested on: OVCAR-4 ovarian
OVCAR-5 ovarian = tested on: OVCAR-5 ovarian
OVCAR-8 ovarian = tested on: OVCAR-8 ovarian
PC-3 prostate = tested on: PC-3 prostate
RPMI-8226 leukemia = tested on: RPMI-8226 leukemia
RXF 393 renal = tested on: RXF 393 renal
SF-268 CNS = tested on: SF-268 CNS
SF-295 CNS = tested on: SF-295 CNS
SK-MEL-2 melanoma = tested on: SK-MEL-2 melanoma
SK-MEL-28 melanoma = tested on: SK-MEL-28 melanoma
SK-MEL-5 melanoma = tested on: SK-MEL-5 melanoma
SK-OV-3 ovarian = tested on: SK-OV-3 ovarian
SN12C renal = tested on: SN12C renal
SNB-19 CNS = tested on: SNB-19 CNS
SNB-75 CNS = tested on: SNB-75 CNS
SR leukemia = tested on: SR leukemia
SW-620 colon = tested on: SW-620 colon
T-47D breast = tested on: T-47D breast
TK-10 renal = tested on: TK-10 renal
U251 CNS = tested on: U251 CNS
UACC-257 melanoma = tested on: UACC-257 melanoma
UACC-62 melanoma = tested on: UACC-62 melanoma
UO-31 renal = tested on: UO-31 renal

With `O=C1N(Cc2ccccc2Cl)c2ccccc2C12NN=C(c1cccc(Cl)c1)S2` (centres undefined) the GI50 (786-0 renal) was 1720 nM, the TGI (786-0 renal) was 3120 nM and the GI50 (A498 renal) was 1540 nM. For the same molecule, the TGI (A498 renal) was 2950 nM, the GI50 (A549 NSCLC) was 1860 nM and the TGI (A549 NSCLC) was 3410 nM. For the same molecule, the GI50 (ACHN renal) was 1810 nM, the TGI (ACHN renal) was 3430 nM and the GI50 (BT-549 breast) was 1830 nM. It also gave a TGI (BT-549 breast) of 3440 nM, a GI50 (CAKI-1 renal) of 1690 nM and a TGI (CAKI-1 renal) of 3070 nM. The GI50 (CCRF-CEM leukemia) was 1860 nM, the TGI (CCRF-CEM leukemia) was 4930 nM and the GI50 (COLO 205 colon) was 1770 nM. It also gave a TGI (COLO 205 colon) of 3300 nM, a GI50 (DU-145 prostate) of 1700 nM and a TGI (DU-145 prostate) of 3260 nM. For the same molecule, the GI50 (EKVX NSCLC) was 1690 nM, the TGI (EKVX NSCLC) was 3080 nM and the GI50 (HCC-2998 colon) was 1780 nM. The TGI (HCC-2998 colon) was 3240 nM, the GI50 (HCT-116 colon) was 1620 nM and the TGI (HCT-116 colon) was 2980 nM. It also gave a GI50 (HCT-15 colon) of 1900 nM, a TGI (HCT-15 colon) of 4190 nM and a GI50 (HL-60(TB) leukemia) of 2490 nM. The TGI (HL-60(TB) leukemia) was 6320 nM, the GI50 (HOP-62 NSCLC) was 1550 nM and the TGI (HOP-62 NSCLC) was 2890 nM. For the same molecule, the GI50 (HOP-92 NSCLC) was 1740 nM, the TGI (HOP-92 NSCLC) was 3170 nM and the GI50 (HS 578T breast) was 2400 nM. The TGI (HS 578T breast) was 5850 nM, the GI50 (HT29 colon) was 2020 nM and the TGI (HT29 colon) was 4300 nM. It also gave a GI50 (IGROV1 ovarian) of 1780 nM, a TGI (IGROV1 ovarian) of 3750 nM and a GI50 (K-562 leukemia) of 2210 nM. For the same molecule, the TGI (K-562 leukemia) was 5390 nM, the GI50 (KM12 colon) was 1820 nM and the TGI (KM12 colon) was 3790 nM. The GI50 (LOX IMVI melanoma) was 1490 nM, the TGI (LOX IMVI melanoma) was 2920 nM and the GI50 (M14 melanoma) was 1700 nM. It also gave a TGI (M14 melanoma) of 3250 nM, a GI50 (MALME-3M melanoma) of 1540 nM and a TGI (MALME-3M melanoma) of 3240 nM. The GI50 (MCF7 breast) was 1750 nM, the TGI (MCF7 breast) was 3370 nM and the GI50 (MDA-MB-231 breast) was 2020 nM. It also gave a TGI (MDA-MB-231 breast) of 4200 nM, a GI50 (MDA-MB-435) of 1750 nM and a TGI (MDA-MB-435) of 3280 nM. It also gave a GI50 (MOLT-4 leukemia) of 2040 nM, a TGI (MOLT-4 leukemia) of 4640 nM and a GI50 (NCI-H226 lung) of 1490 nM. The TGI (NCI-H226 lung) was 2860 nM, the GI50 (NCI-H23 lung) was 1630 nM and the TGI (NCI-H23 lung) was 3670 nM. The GI50 (NCI-H460 lung) was 1420 nM, the TGI (NCI-H460 lung) was 3320 nM and the GI50 (NCI-H522 lung) was 1720 nM. It also gave a TGI (NCI-H522 lung) of 3480 nM, a GI50 (NCI/ADR-RES ovarian) of 1780 nM and a TGI (NCI/ADR-RES ovarian) of 4140 nM. It also gave a GI50 (OVCAR-3 ovarian) of 1830 nM, a TGI (OVCAR-3 ovarian) of 3430 nM and a GI50 (OVCAR-4 ovarian) of 1950 nM. It also gave a TGI (OVCAR-4 ovarian) of 4050 nM, a GI50 (OVCAR-5 ovarian) of 1880 nM and a TGI (OVCAR-5 ovarian) of 3760 nM. For the same molecule, the GI50 (OVCAR-8 ovarian) was 1960 nM, the TGI (OVCAR-8 ovarian) was 4410 nM and the GI50 (PC-3 prostate) was 1740 nM. The TGI (PC-3 prostate) was 3450 nM, the GI50 (RPMI-8226 leukemia) was 2360 nM and the TGI (RPMI-8226 leukemia) was 6040 nM. It also gave a GI50 (RXF 393 renal) of 1760 nM, a TGI (RXF 393 renal) of 3400 nM and a GI50 (SF-268 CNS) of 1590 nM. The TGI (SF-268 CNS) was 3260 nM, the GI50 (SF-295 CNS) was 1710 nM and the TGI (SF-295 CNS) was 3170 nM. The GI50 (SK-MEL-2 melanoma) was 1770 nM, the TGI (SK-MEL-2 melanoma) was 3380 nM and the GI50 (SK-MEL-28 melanoma) was 1860 nM. For the same molecule, the TGI (SK-MEL-28 melanoma) was 3570 nM, the GI50 (SK-MEL-5 melanoma) was 1710 nM and the TGI (SK-MEL-5 melanoma) was 3110 nM. For the same molecule, the GI50 (SK-OV-3 ovarian) was 1690 nM, the TGI (SK-OV-3 ovarian) was 3050 nM and the GI50 (SN12C renal) was 1910 nM. It also gave a TGI (SN12C renal) of 3920 nM, a GI50 (SNB-19 CNS) of 1750 nM and a TGI (SNB-19 CNS) of 3320 nM. The GI50 (SNB-75 CNS) was 1470 nM, the TGI (SNB-75 CNS) was 2840 nM and the GI50 (SR leukemia) was 2140 nM. For the same molecule, the TGI (SR leukemia) was 5670 nM, the GI50 (SW-620 colon) was 2020 nM and the TGI (SW-620 colon) was 4330 nM. It also gave a GI50 (T-47D breast) of 1620 nM, a TGI (T-47D breast) of 3100 nM and a GI50 (TK-10 renal) of 1770 nM. The TGI (TK-10 renal) was 3150 nM, the GI50 (U251 CNS) was 1770 nM and the TGI (U251 CNS) was 3150 nM. For the same molecule, the GI50 (UACC-257 melanoma) was 1700 nM, the TGI (UACC-257 melanoma) was 3270 nM and the GI50 (UACC-62 melanoma) was 1760 nM. The TGI (UACC-62 melanoma) was 3520 nM, the GI50 (UO-31 renal) was 1690 nM and the TGI (UO-31 renal) was 3260 nM.
